Values of other authors in patent US12433839B2, “Sustained release particle formulations” (Adare Pharmaceuticals USA, Inc., priority 2011, dated 2025).

Details: in vivo

typical plasma half-life: about one
SMILES: COc1ccccc1OCC(O)CO (stereo not shown) [guaifenesin]
